Test results taken from PMC5571359, “Screening the Medicines for Malaria Venture Pathogen Box across Multiple Pathogens Reclassifies Starting Points for Open-Source Drug Discovery” (Antimicrobial Agents and Chemotherapy, 2017).
Like-named read-outs stand apart in the source and are kept apart here.

What was measured:
[1] = test system: HepG2; conditions: cited from earlier work; for CC50: read-out: HepG2 PBox CC50 µM, HepG2 cytotoxicity; for CC50 / HepG2 PBox CC20: ref PBox supporting information; for HepG2 PBox CC20 μMc: ref Pbox supporting information
[2] = test system: HEK293 cells; assay: HEK293 resazurin cell cytotoxicity assay; conditions: Homo sapiens
[3] = test system: Plasmodium falciparum 3D7 asexual blood stage; assay: microbe, parasite or virus in culture
[4] = test system: NF54-pfs16-LUC-GFP stage IV gametocytes; assay: Plasmodium falciparum late stage gametocyte (LSG) image-based assay; assay type: cell-based; conditions: Plasmodium falciparum
[5] = test system: P. falciparum ABS; conditions: cited from earlier work; for EC50: ChEMBL Data, read-out: TCMDC (ref 93) EX50; for IC50: read-out: Pf 3D7 Pbox IC50
[6] = test system: T. cruzi C4 β-galactosidase reporter parasite in MRC 5SV2 host cells; conditions: ref Pbox supporting information; read-out: T. cruzi Pbox IC50; cited from earlier work
[7] = test system: T. cruzi intracellular amastigotes; assay: Intracellular anti-Trypanosoma cruzi image-based assay (amastigotes); assay type: cell-based; conditions: for IC50: intracellular amastigotes
[8] = test system: T. b. brucei 427 bloodstream trypanosomes; assay: T. b. brucei resazurin viability assay; assay type: cell-based, Trypanosoma brucei brucei; conditions: Trypanosoma brucei
[9] = test system: L. donovani MHOM/IN/80/DD8 intracellular amastigotes; assay: Leishmania donovani intracellular amastigote assay in THP-1 cells; assay type: cell-based; conditions: Leishmania donovani, THP-1, read-out: L, donovani Discovery Biology IC50 µM
[10] = test system: liver stage; conditions: liver stage; ref Pathogen Box supporting information; read-out: LIVER STAGE Pbox IC50; cited from earlier work
[11] = HEK293, read-out: HEK % Inhibition 20uM/IC50 Discovery Biology
[12] = 3D7, read-out: Antiplasmodial IC50 (ABS), PBox compounds, P. falciparum 3D7
[13] = 3D7, read-out: activity against P. falciparum (novel antiplasmodial actives of the tuberculosis set)
[14] = NF54, read-out: Antiplasmodial IC50 (GAM / LSG), PBox compounds, stage IV gametocytes, single determination
[15] = HEK293, read-out: HEK % Inhibition 20uM/IC50 Discovery Biology (IA)
[16] = P. falciparum 3D7, ref PBox supporting information
[17] = NF54, read-out: Pf Stage IV GAMS Discovery Biology IC50 µM, stage IV gametocytes, Discovery Biology
[18] = HEK293, read-out: HEK % Discovery Biology IC50 uM
[19] = 3D7, read-out: Pf 3D7 Discovery Biology IC50 µM, P. falciparum 3D7 asexual blood stage, Discovery Biology
[20] = read-out: T b.brucei Discovery Biology IC50
[21] = NF54, read-out: Pf Stage IV GAMS Discovery Biology IC50 µM, stage IV gametocytes
[22] = Pf 3D7, ref Pathogen Box supporting information
[23] = 3D7, read-out: Antiplasmodial IC50 (ABS)

Cn1c(=O)c2c(S(C)(=O)=O)snc2n(C)c1=O [MMV687251]
CC50 [1]: 1.1 µM | inhibition at 20 µM [2, 11]: 100%

Brc1cncc(-c2cc(NCCCn3ccnc3)nc(-c3ccccc3)n2)c1 [MMV661713]
IC50 [3, 12]: 1.49 µM | IC50 [3, 13]: < 2 µM

COc1ccc(-c2onc(C(F)(F)F)c2-c2ccc(Cl)cc2)c(O)c1 [MMV688766]
IC50 [4, 14]: 1.31 µM | IC50 [2, 15]: > 20 µM | IC50 [3, 12]: 0.85 µM

CC(C)c1ncc(-c2ccncc2)c([C@H]2CC[C@H](CNC(=O)c3cccnc3)CC2)n1 [MMV676442]
IC50 [2, 15]: > 20 µM | EC50 ([5]; P. falciparum): 780 nM | IC50 [5, 16]: 840 nM

FC(F)(F)c1ccc(N(c2cccnc2)C2CCN(c3ccc(C(F)(F)F)cn3)CC2)cc1 [MMV689243]
HepG2 PBox CC20 [1]: 25800 nM | IC50 [2, 11]: > 20 µM | IC50 [6]: 15 nM | Emax ([7]; Trypanosoma cruzi, PBox kinetoplastid set compounds active against T. cruzi alone, read-out: Emax against T. cruzi (subefficacious effect)): < 100% | IC50 ([7]; Trypanosoma cruzi, read-out: T cruzi Discovery Biology IC50): 700 nM

COc1cccc(-c2nc3c(N4CCCC4)cccc3n2CC2CCCN2)n1 (stereo not shown) [MMV687703]
IC50 [4, 14]: 3.83 µM | CC50 [1]: 25 µM | inhibition at 20 µM [2, 11]: 76% | IC50 [3, 12]: 1.33 µM | IC50 [3, 13]: < 2 µM

CCC(Sc1nc2ccccc2o1)C(=O)Nc1nccs1 (stereo not shown) [MMV676383]
IC50 [4, 14]: 1.37 µM | CC50 [1]: 13 µM | inhibition at 20 µM [2, 11]: 88% | IC50 [3, 12]: 4.43 µM | IC50 [3, 13]: 4 to 5 µM

O=C(Nc1ccc(C(F)(F)F)c(C(F)(F)F)c1)c1cc(Cl)ccc1O [MMV687807]
IC50 [4, 17]: 5.07 µM | CC50 [1]: 0.65 µM | IC50 [2, 18]: 1.99 µM | IC50 [3, 19]: 1.82 µM | IC50 [8, 20]: 0.66 µM | IC50 ([9]; Discovery Biology, some values carry an asterisk (not explained in the part shown)): 5.06 µM

O=C(Nc1nc(-c2ccccn2)cs1)c1cncn1-c1ccccc1 [MMV676512]
CC50 [1]: 3.8 µM | IC50 [2, 18]: 2.83 µM | IC50 [8, 20]: 2.87 µM | IC50 ([7]; Trypanosoma cruzi, Discovery Biology, read-out: T cruzi Discovery Biology IC50): 4120 nM

c1ccc(-c2[nH]c3ccccc3c2C(c2ccccn2)N2CCCC2)cc1 (stereo not shown) [MMV688762]
IC50 [4, 21]: 3.16 µM | HepG2 PBox CC20 μMc [1]: 1000 nM | IC50 [2, 15]: > 20 µM

NS(=O)(=O)c1cncc(-c2ccc3nccc(-c4cn[nH]c4)c3n2)c1 [MMV024101]
IC50 [10]: 2170 nM | EC50 ([5]; TCMDC): 530 nM | IC50 [5, 22]: 600 nM

CC(Oc1ccccc1)C(=O)Nc1nc(-c2ccccn2)cs1 (stereo not shown) [MMV676411]
IC50 [4, 17]: 1.92 µM | CC50 [1]: 29.3 µM | inhibition at 20 µM [2, 11]: 81% | IC50 [3, 19]: 5 µM | IC50 [8, 20]: 3.22 µM

Cc1[nH]c2cc(F)cc(F)c2c(=O)c1-c1ccc(Oc2ccc(OC(F)(F)F)cc2)cc1 [MMV671636]
HepG2 PBox CC20 μMc [1]: >80000 nM | IC50 [2, 15]: > 20 µM | IC50 [3, 23]: 1.01 µM

c1cncc(NCc2ccc(-c3cc4ccncc4cc3OC3CCNCC3)s2)c1 [MMV023969]
CC50 [1]: 8 µM | inhibition at 20 µM [2, 11]: 86% | IC50 [3, 12]: 0.59 µM | EC50 ([5]; TCMDC set, P. falciparum): 980 nM

COc1ccc(-c2nn(C(C)C)c3ncnc(N)c23)cc1OC [MMV675993]
IC50 ([4]; NF54, read-out: Pf Stage IV GAMS Discovery Biology IC50, stage IV gametocytes): 1.95 µM | HepG2 PBox CC20 [1]: 1600 nM | inhibition at 20 µM [2, 11]: 73% | IC50 ([3]; 3D7, read-out: Pf 3D7 Discovery Biology IC50, P. falciparum 3D7 asexual blood stage): 1.07 µM

CC(C)n1nc(-c2cc3c(Cl)cccc3[nH]2)c2c(N)ncnc21 [MMV688417]
inhibition at 20 µM [2, 11]: 83% | IC50 [8, 20]: 6.1 µM | activity against T. cruzi in the Discovery Biology assay [7]: subefficacious activity | IC50 ([7]; Trypanosoma cruzi, PBox compounds, 48 h exposure, read-out: IC50 T. cruzi (Discovery Biology)): 1430 nM

CN1CCN(CCCOc2ncc(Nc3ncc(-c4ccc(C(F)(F)F)c(F)c4)nc3C(N)=O)cn2)CC1 [MMV687812]
CC50 [1]: 3.9 µM | inhibition at 20 µM [2, 11]: 100% | IC50 [3, 19]: 1.6 µM

CC1(C)Cc2c(c(N3CCOCC3)nc3snc(Br)c23)CO1 [MMV687794]
IC50 [2, 15]: > 20 µM | IC50 [5, 16]: 290 nM

Cc1ccc2[nH]c(C3CCCNC3)c(-c3ccncc3)c2c1 (stereo not shown) [MMV024311]
CC50 [1]: 12.7 µM | IC50 [3, 12]: 0.75 µM | IC50 ([8]; read-out: T b.brucei Discovery Biology IC50 µM): 5.15 µM | EC50 ([5]; TCMDC set, P. falciparum): 1230 nM

CC(C)(C)c1cnc(NC(=O)c2ccccc2O)s1 [MMV495543]
CC50 [1]: 47.6 µM | IC50 [8, 20]: 5.45 µM

CNc1nnc(Sc2cnn(-c3ccccc3)c(=O)c2Cl)s1 [MMV688763]
IC50 [4, 21]: 5.33 µM | HepG2 PBox CC20 μMc [1]: 1600 nM | IC50 [2, 18]: 6.32 µM | IC50 ([3]; 3D7, read-out: Pf 3D7 Discovery Biology IC50 µM, P. falciparum 3D7 asexual blood stage): 3.36 µM | IC50 ([9]; intracellular amastigotes, values marked *): 2.11 µM

Cc1cccc(-c2nc(Nc3ccncn3)c3sccc3n2)n1 [MMV688122]
IC50 [4, 14]: 0.11 µM | CC50 [1]: 14.3 µM | IC50 [3, 12]: 2.11 µM

CO/C=C(/C(=O)OC)c1ccccc1Oc1cc(Oc2ccccc2C#N)ncn1 [MMV021057]
IC50 [4, 14]: 0.03 µM | inhibition at 20 µM [2, 11]: 71% | IC50 [3, 23]: 0.04 µM | IC50 ([3]; 3D7, read-out: Pf 3D7 Discovery Biology IC50 µM): 0.035 µM | IC50 [5, 22]: 53.6 nM
